US4051252A, “3-Aminoindazole-1 and 2-carboxylic acid derivatives” (Bayer Aktiengesellschaft, priority 1974, dated 1977)

How the values were obtained:
rats [1] = test: Yeast Antipyretic Test; format: in vivo, rat; details: oral, raised body temperature lowered by 1° C in 50% of animals
Procedure: Antipyretic action can be observed in rats to which a beer yeast suspension has been administered subcutaneously. The body temperature is measured rectally before and 16 hours after administration of the beer years. The substance to be tested is administered orally to groups of 5 rats in which the body temperature has risen by at least 1° C. Thereafter, the temperature drop is measured rectally with a drop in the body temperature of at least 1° C being assessed as an antipyretic effet. The Ed50 is the dose at which, in 50% of the animals employed, the raised body temperature is lowered by 1° C upon administration of the active substance according to the invention.

[2] = Acute Toxicity (oral, mouse); details: in vivo
From the text: The pharmacological properties can be conveniently observed in recognized in vivo models.

tails of rats = test: Tail Flick Test (analgesic action); format: in vivo; details: Rattus norvegicus; oral, male rats; reaction time of 50% of animals lengthened to at least 20 seconds
From the text: Analgesic action can be observed in the tail flick test on the tails of rats in which the tail of male rats is irradiated with a focused heat ray. In this test, untreated animals react after an average irradiation time of 5.1±0.8 seconds (reaction time) by drawing away the tail. Under the influence of analgesically active compounds, this reaction time becomes longer. Active compounds which after administration prolong the reaction time of the animals to at least 20 seconds are considered to be analgesically active. Five animals are employed per dose. The ED50 is the dose which on average lengthens the reaction time of 50% of the animals employed to at least 20 seconds [see generally Wolff et al., J. Clin. Invest., 19, 659-680 (1940)].

rats [3] = test: Phenylquinone Writhing Test (analgesic activity); format: in vivo; details: Rattus norvegicus, oral, 60 minutes before phenylquinone i.p., writhing reduced to half of control
Procedure: Analgesic activity can also be observed in the phenylquinone writhing test in which 100 μg of phenylquinone, dissolved in 0.5 ml of 5% strength alcohol, are injected intraperitoneally into rats. A few minutes after administration, the animals show the characteristic writhing reaction, which consists of the animals showing extreme backward extension of the hind paws, flexing the back and lifting the tail. At the same time, wave-like contractions frequently pass over the abdominal muscles. The inhibition of this writhing syndrome is assessed to be an analgesic effect. The substance to be investigated is administered 30 minutes (in the case of subcutaneous administration) or 60 minutes (in the case of oral administration) before the injection of phenylquinone. Five animals are employed per compound and per dose. The ED50 is the dose at which the number of writhing reactions in the animals employed is on average reduced to half that of the control group [see generally: Siegmung et al., Proc. Soc. exp. Biol. Med. 95, 729-731 (1957)].

paw of rats = test: Carrageenin Anti-inflammatory Test (carrageenin edema on the paw of rats); format: in vivo, rat; details: one hour before carrageenin, measured 2 1/2 and 3 hours after carrageenin; for ED50: Rattus norvegicus, po
Procedure: The anti-inflammatory (antiphlogistic and anti-edematous) action of the compounds can be conveniently observed by the inhibition of carrageenin edema on the paw of rats. In this test, a reference measurement on the normal paws of rats is carried out half an hour before and half an hour after oral administration of the test compound, using an antiphlogmeter. One hour after administration of the substance, the edema is started by injecting a carrageenin solution into the planta pedis of one hind paw at 21/2 hours and 3 hours after the carrageenin injection, the effect on the edematous paw is measured. The relative paw volume is expressed as a percentage of the reference measurement (=100%). The ED50 is the dose at which, in 50% of the animals employed per dose, the difference between the relative paw volume of the treated animals and the relative paw volume of the 10 control groups is 100.

Nc1n[nH]c2ccc(C(F)(F)F)cc12 [3-amino-5-trifluoromethylindazole, reference compound]
ED50 (rats [1]): 48 mg/kg | LD50 [2]: 228 mg/kg | ED50 (tails of rats): 67 mg/kg | ED50 (rats [3]): 61 mg/kg

CCOC(=O)n1nc(N)c2cc(C(F)(F)F)ccc21 [3-amino-5-trifluoromethylindazole-1-carboxylic acid ethyl ester]
LD50 [2]: > 5000 mg/kg | ED50 (rats [3]): 1 mg/kg

CCNC(=O)n1nc(N)c2cc(C(F)(F)F)ccc21 [3-amino-5-trifluoromethylindazole-1-carboxylic acid ethylamide]
ED50 (rats [1]): 51 mg/kg | LD50 [2]: > 1000 mg/kg | ED50 (tails of rats): 53 mg/kg

COC(=O)n1nc(N)c2cc(C(F)(F)F)ccc21 [3-amino-5-trifluoromethylindazole-1-carboxylic acid methyl ester]
ED50 (rats [1]): ~50 mg/kg | ED50 (tails of rats): 41 mg/kg

CCOC(=O)n1nc(N)c2ccc(Cl)cc21 [3-amino-6-chloroindazole-1-carboxylic acid ethyl ester]
ED50 (paw of rats): ~77 mg/kg | ED50 (oral), Carrageenin Anti-inflammatory Test (paw of rats): 68 (44-138) mg/kg | LD50 [2]: ~2000 mg/kg

COC(=O)n1nc(N)c2ccc(Cl)cc21 [3-amino-6-chloroindazole-1-carboxylic acid methyl ester]
ED50 (rats [1]): ~20 mg/kg | ED50 (paw of rats): ~40 mg/kg | LD50 [2]: > 1000 mg/kg | ED50 (tails of rats): 30 mg/kg | ED50 (rats [3]): ~10 mg/kg

CCCCOC(=O)n1nc(N)c2ccc(Cl)cc21 [3-amino-6-chloroindazole-1-carboxylic acid n-butyl ester]
ED50 (paw of rats): 67 mg/kg | LD50 [2]: > 1000 mg/kg

CN(C)C(=O)n1nc(N)c2ccc(Cl)cc21 [3-amino-6-chloroindazole-1-carboxylic acid-dimethylamide]
ED50 (rats [1]): 41 mg/kg | LD50 [2]: > 1000 mg/kg

CN(C)C(=O)n1nc2cc(Cl)ccc2c1N [3-amino-6-chloroindazole-2-carboxylic acid dimethylamide]
ED50 (rats [1]): 23 mg/kg | ED50 (rats [3]): 17 mg/kg

CCOC(=O)n1nc(N)c2ccc(C(F)(F)F)cc21 [3-amino-6-trifluoromethylindazole-1-carboxylic acid ethyl ester]
ED50 (rats [1]): ~50 mg/kg | ED50 (tails of rats): 53 mg/kg

CCOC(=O)n1nc(N)c2ccccc21 [3-aminoindazole-1-carboxylic acid ethyl ester]
ED50 (paw of rats): ~47 mg/kg | LD50 [2]: ~3000 mg/kg

CCOC(=O)n1nc(N(C)C)c2ccc(Cl)cc21 [3-dimethylamino-6-chloroindazole-1-carboxylic acid ethyl ester]
ED50 (rats [1]): 5.2 mg/kg | LD50 [2]: > 5000 mg/kg | ED50 (rats [3]): 17 mg/kg

CN(C)C(=O)n1nc(NC=O)c2ccc(C(F)(F)F)cc21 [3-formylamino-6-trifluoromethyl-1-carboxylic acid dimethylamide]
ED50 (oral), Carrageenin Anti-inflammatory Test (paw of rats): 92 (44-216) mg/kg

CN(C)C(=O)n1nc(NC=O)c2cc(C(F)(F)F)ccc21 [3formylamino-5-trifluoromethylindazole-1-carboxylic acid dimethylamide]
ED50 (rats [1]): 14 mg/kg | LD50 [2]: > 1000 mg/kg
